{
  "source": "patent US8816088B2",
  "about": "(Theravance, Inc., priority 2009, dated 2014)",
  "note": "Structures can show the parent of a compound that is named as a salt.",
  "data": [
    {"test_system": "MCh-induced bronchoconstriction", "experiment": "Einthoven assay: bronchoprotection against methacholine (MCh)-induced bronchoconstriction", "type": "in vivo", "conditions": "Rattus norvegicus, inhaled or nasal, 24 h, read-out: Broncho. at 24 h, Bronchoprotective effect present at 24 h, 100 μg by inhalation, 24 h after administration", "description": "(§1) This assay measures the ability of a test compound to provide bronchoprotection against methacholine (MCh)-induced bronchoconstriction in a rat. Male Sprague-Dawley rats (Harlan, Indianapolis, Ind.), weighing between 200 g and 350 g, were used for all studies. Test compound or vehicle (sterile deionized water) were dosed by inhalation (1H) over a 10 min period in a pie shaped inhalation chamber (R+S Molds, San Carlos, Calif.) using 5 mL of dosing solution. […] Rats were dosed with 100 μg of test compound unless otherwise indicated. At predetermined time points, rats were anesthetized with an intraperitoneal (IP) injection of 120 mg/kg inactin (thiobutabarbital). A supplemental dose (40 mg/kg, IP) was administered if the animal responded to physical stimuli (e.g. toe pinch). The surgical site was shaved and a 1-2 cm midline incision of the ventral aspect of the neck was made. The jugular vein was isolated and cannulated with a saline-filled polyethylene catheter (PE-50) to allow IV infusion of MCh. Trachea was dissected free and cannulated with a 14G needle (#NE-014, Small Parts, Miami Lakes, Fla.). After placement of the tracheal cannula, each rat was ventilated using a respirator (Model 683, Harvard Apparatus, Inc., MA) set at a stroke volume of 1 mL/100 g body weight (but not exceeding 2.5 mL volume) and a rate of 90 strokes per minute. A T-connector was placed along the respirator expiratory tubing to allow for measurement of changes in ventilation pressure (VP) using a Biopac transducer that was connected to a Biopac […]) pre-amplifier. Body temperature was maintained at 37° C. using a heating pad. Changes in VP were recorded using the Acknowledge Data Collection Software (Santa Barbara, Calif.). Baseline values were collected for at least 2.5 min. Rats were then challenged with non-cumulative intravenous (IV) infusions of 40 and 80 μg/kg MCh. MCh was infused intravenously for 2.5 minutes from a syringe pump (sp210iw, World Precision Instruments, Inc., Sarasota, Fla.) at a rate of 2 mL/kg/min, with a 2 minute interval between the two doses of MCh. Changes in ventilation pressure (cm H2O) in treated animals are expressed as % inhibition of MCh response relative to control animals. Other bronchoconstrictors, such as histamine and acetylcholine, can be used in place of MCh in this assay. Additionally, guinea pigs can be used instead of rats. […] Inhibition greater than or equal to 30 percent at 24 h is indicative of a long duration of action.", "units": {"inhibition in vivo at 0.1 mg": "%"}, "values": [
      {"smiles": "Cc1cc(CNC[C@H](O)c2ccc(O)c3[nH]c(=O)ccc23)ccc1NC(=O)CCCN(C)C(=O)CCN1CCC(OC(=O)Nc2ccccc2-c2ccccc2)CC1", "note": "[Compound I-2, Biphenyl-2-ylcarbamic acid 1-(2-{[3-(4-{[(R)-2-hydroxy-2-(8-hydroxy-2-oxo-1,2-dihydroquinolin-5-yl)ethylamino]methyl}-2-methylphenylcarbamoyl)-propyl]methylcarbamoyl}ethyl)piperidin-4-yl ester ditrifluoroacetic acid salt]", "inhibition in vivo at 0.1 mg": "< 30"},
      {"smiles": "C[C@H](Cc1cccc(CC(=O)NCCCN(C)C(=O)CCN2CCC(OC(=O)Nc3ccccc3-c3ccccc3)CC2)c1)NC[C@H](O)c1ccc(O)c2[nH]c(=O)ccc12", "note": "[Compound I-12, Biphenyl-2-ylcarbamic acid 1-[2-({3-[2-(3-{(R)-2-[(R)-2-hydroxy-2-(8-hydroxy-2-oxo-1,2-dihydroquinolin-5-yl)ethylamino]propyl}phenyl)acetylamino]propyl}-methylcarbamoyl)ethyl]piperidin-4-yl ester ditrifluoroacetic acid salt]", "inhibition in vivo at 0.1 mg": "< 30"},
      {"smiles": "Cc1cc(CNC[C@H](O)c2ccc(O)c3[nH]c(=O)ccc23)ccc1NC(=O)c1cccc(N(C)C(=O)CCN2CCC(OC(=O)Nc3ccccc3-c3ccccc3)CC2)c1", "note": "[Compound I-27, Biphenyl-2-ylcarbamic acid 1-(2-{[3-(4-{[(R)-2-hydroxy-2-(8-hydroxy-2-oxo-1,2-dihydroquinolin-5-yl)-ethylamino]methyl}-2-methylphenylcarbamoyl)phenyl]-methylcarbamoyl}ethyl)piperidin-4-yl ester ditrifluoroacetic acid salt]", "inhibition in vivo at 0.1 mg": "< 30"},
      {"smiles": "Cc1cc(CNC[C@H](O)c2ccc(O)c3[nH]c(=O)ccc23)ccc1NC(=O)c1ccc(C)c(N(C)C(=O)CCN2CCC(OC(=O)Nc3ccccc3-c3ccccc3)CC2)c1", "note": "[Compound I-28, ditrifluoroacetic acid salt]", "inhibition in vivo at 0.1 mg": "< 30"},
      {"smiles": "COc1cc(CNC[C@H](O)c2ccc(O)c3[nH]c(=O)ccc23)ccc1NC(=O)c1cccc(N(C)C(=O)CCN2CCC(OC(=O)Nc3ccccc3-c3ccccc3)CC2)c1", "note": "[Compound I-29, ditrifluoroacetic acid salt]", "inhibition in vivo at 0.1 mg": "< 30"},
      {"smiles": "Cc1cc(NC(=O)c2cccc(N(C)C(=O)CCN3CCC(OC(=O)Nc4ccccc4-c4ccccc4)CC3)c2)c(C)cc1CNC[C@H](O)c1ccc(O)c2[nH]c(=O)ccc12", "note": "[Compound I-30, ditrifluoroacetic acid salt]", "inhibition in vivo at 0.1 mg": "< 30"},
      {"smiles": "CN(C(=O)CCN1CCC(OC(=O)Nc2ccccc2-c2ccccc2)CC1)c1cccc(C(=O)Nc2cccc(CCNC[C@H](O)c3ccc(O)c4[nH]c(=O)ccc34)c2)c1", "note": "[Compound I-32, ditrifluoroacetic acid salt]", "inhibition in vivo at 0.1 mg": "< 30"},
      {"smiles": "Cc1ccc(C(=O)Nc2cccc(CCNC[C@H](O)c3ccc(O)c4[nH]c(=O)ccc34)c2)cc1N(C)C(=O)CCN1CCC(OC(=O)Nc2ccccc2-c2ccccc2)CC1", "note": "[Compound I-33, Biphenyl-2-ylcarbamic acid 1-(2-{[5-(3-{2-[(R)-2-hydroxy-2-(8-hydroxy-2-oxo-1,2-dihydroquinolin-5-yl)-ethylamino]ethyl}phenylcarbamoyl)-2-methylphenyl]-methylcarbamoyl}ethyl)piperidin-4-yl ester ditrifluoroacetic acid salt]", "inhibition in vivo at 0.1 mg": "< 30"},
      {"smiles": "CN(C(=O)CCN1CCC(OC(=O)Nc2ccccc2-c2ccccc2)CC1)c1cccc(C(=O)Nc2ccc(CCNC[C@H](O)c3ccc(O)c4[nH]c(=O)ccc34)cc2)c1", "note": "[Compound I-34, Ditrifluoroacetate]", "inhibition in vivo at 0.1 mg": "> 30"},
      {"smiles": "Cc1ccc(C(=O)Nc2cccc(CC(C)NC[C@H](O)c3ccc(O)c4[nH]c(=O)ccc34)c2)cc1N(C)C(=O)CCN1CCC(OC(=O)Nc2ccccc2-c2ccccc2)CC1", "note": "(stereo partly drawn) [Compound I-37, Biphenyl-2-ylcarbamic acid 1-(2-{[5-(3-{2-[(R)-2-hydroxy-2-(8-hydroxy-2-oxo-1,2-dihydroquinolin-5-yl)-ethylamino]propyl}phenylcarbamoyl)-2-methylphenyl]-methylcarbamoyl}ethyl)piperidin-4-yl ester ditrifluoroacetic acid salt]", "inhibition in vivo at 0.1 mg": "< 30"},
      {"smiles": "C[C@H](Cc1cccc(NC(=O)c2cccc(N(C)C(=O)CCN3CCC(OC(=O)Nc4ccccc4-c4ccccc4)CC3)c2)c1)NC[C@H](O)c1ccc(O)c2[nH]c(=O)ccc12", "note": "[Compound I-38, Biphenyl-2-ylcarbamic acid 1-(2-{[3-(3-{(R)-2-[(R)-2-hydroxy-2-(8-hydroxy-2-oxo-1,2-dihydroquinolin-5-yl)-ethylamino]propyl}phenylcarbamoyl)phenyl]methyl-carbamoyl}ethyl)piperidin-4-yl ester ditrifluoroacetic acid salt]", "inhibition in vivo at 0.1 mg": "< 30"},
      {"smiles": "C[C@@H](Cc1cccc(NC(=O)c2cccc(N(C)C(=O)CCN3CCC(OC(=O)Nc4ccccc4-c4ccccc4)CC3)c2)c1)NC[C@H](O)c1ccc(O)c2[nH]c(=O)ccc12", "note": "[Compound I-39, ditrifluoroacetic acid salt]", "inhibition in vivo at 0.1 mg": "< 30"},
      {"smiles": "CC(Cc1cccc(CNC(=O)c2cccc(N(C)C(=O)CCN3CCC(OC(=O)Nc4ccccc4-c4ccccc4)CC3)c2)c1)NC[C@H](O)c1ccc(O)c2[nH]c(=O)ccc12", "note": "(some centres unmarked) [Compound I-44, ditrifluoroacetic acid salt]", "inhibition in vivo at 0.1 mg": "< 30"},
      {"smiles": "Cc1ccc(C(=O)NCc2cccc(CC(C)NC[C@H](O)c3ccc(O)c4[nH]c(=O)ccc34)c2)cc1N(C)C(=O)CCN1CCC(OC(=O)Nc2ccccc2-c2ccccc2)CC1", "note": "(stereo partly drawn) [Compound I-45, Biphenyl-2-ylcarbamic acid 1-(2-{[5-(3-{2-[(R)-2-hydroxy-2-(8-hydroxy-2-oxo-1,2-dihydroquinolin-5-yl)-ethylamino]propyl}benzylcarbamoyl)-2-methylphenyl]-methylcarbamoyl}ethyl)piperidin-4-yl ester ditrifluoroacetic acid salt]", "inhibition in vivo at 0.1 mg": "< 30"},
      {"smiles": "CC(Cc1cccc(CC(=O)Nc2cccc(N(C)C(=O)CCN3CCC(OC(=O)Nc4ccccc4-c4ccccc4)CC3)c2)c1)NC[C@H](O)c1ccc(O)c2[nH]c(=O)ccc12", "note": "(some centres unmarked) [Compound I-52, ditrifluoroacetic acid salt]", "inhibition in vivo at 0.1 mg": "< 30"}
    ]},
    {"test_system": "MCh-induced bronchoconstriction", "experiment": "Einthoven assay: bronchoprotection against methacholine (MCh)-induced bronchoconstriction", "type": "in vivo", "conditions": "inhaled or nasal; rat, 100 μg by inhalation, 24 h after administration; read-out: Broncho. at 24 h; Bronchoprotective effect present at 24 h", "description": "as §1", "units": {"inhibition in vivo at 0.1 mg": "%"}, "values": [
      {"smiles": "Cc1ccc(C(=O)Nc2ccc(CC(C)NC[C@H](O)c3ccc(O)c4[nH]c(=O)ccc34)cc2)cc1N(C)C(=O)CCN1CCC(OC(=O)Nc2ccccc2-c2ccccc2)CC1", "note": "(stereo partly drawn) [Compound I-41, Biphenyl-2-ylcarbamic acid 1-(2-{[5-(4-{2-[(R)-2-hydroxy-2-(8-hydroxy-2-oxo-1,2-dihydroquinolin-5-yl)-ethylamino]propyl}phenylcarbamoyl)-2-methylphenyl]-methylcarbamoyl}ethyl)piperidin-4-yl ester]", "inhibition in vivo at 0.1 mg": "< 30"}
    ]},
    {"test_system": "MCh-induced bronchoconstriction", "experiment": "Einthoven assay: bronchoprotection against methacholine (MCh)-induced bronchoconstriction", "type": "in vivo", "conditions": "rat, 100 μg by inhalation, 24 h after administration", "description": "as §1", "values": [
      {"smiles": "Cc1ccc(C(=O)Nc2ccc(CCNC[C@H](O)c3ccc(O)c4[nH]c(=O)ccc34)cc2)cc1N(C)C(=O)CCN1CCC(OC(=O)Nc2ccccc2-c2ccccc2)CC1", "note": "[Compound I-35]", "Broncho. at 24 h; Bronchoprotective effect present at 24 h": "Yes (Bronchoprotective effect present at 24 h, e.g., ≧30% inhibition of the MCh response at 24 h in the rat Einthoven assay (100 μg))"}
    ]}
  ]
}
